Values quoted from earlier work in patent US9974792B2, “Methods for treating cancers” (Gilead Sciences, Inc., priority 2013, dated 2018).

Legend:
[1] = tested on: subjects with B-cell malignancies, CLL/SLL; conditions: cited from earlier work
[2] = tested on: CLL subjects; conditions: rituximab monotherapy; CLL subjects with similar median age and prior therapies; cited from earlier work

| Molecule | PFS ([1]; 11 subjects with CLL/SLL) | overall progression-free survival (PFS) ([1]; participants treated in the phase 2 portion of the study) | Response rate ([1]; six subjects with partial lymph-node reduction of at least 50%) | 24-week PFS [2] |
| --- | --- | --- | --- | --- |
| COc1cc(Nc2ncc(F)c(Nc3ccc4c(n3)N(COP(=O)(O)O)C(=O)C(C)(C)O4)n2)cc(OC)c1OC [fostamatinib] | 6.4 months | 18 weeks | 54.5% | – |
| rituximab: monoclonal antibody (anti-CD20), monotherapy comparator in CLL subjects | – | – | – | 46% |
